In brackets after ≈: the same amount, converted by molar mass. Like-named read-outs stand apart in the source and are kept apart here.
What was measured:
[1] = tested on: IDH2 mutant cell line TF1-R140Q; experiment: Proliferation (total, HSC and progenitor cell count) in the TF1 assay; type: cell-based
Procedure: Cells were plated at a density of 0.2e^6 cells/ml of 2 ml culture in 6 well plates.
TF1 cells were cultured in the following media: RPMI containing HEPES and L-glutamine, 10% FBS, Pen/Strep, G418 (final conc 500 μg/ml), and GM-CSF (final conc 5 ng/ml). The cells were cultured for 7 days, with or without compound treatment as described in FIG. 91.
For the hemoglobinization assay, TF1 cells were washed three times with PBS to remove residual GM-CSF then plated at (100,000 cells/ml). Cells were then induced to differentiate using EPO (2 unit/ml). Induction continued for 7 days with changing media on 4th day and adding media with fresh EPO. The cell pellets were collected and imaged for hemoglobinization content (as a surrogate for differentiation into blood lineage). Cells were pelleted, washed, stained with a panel of antibodies and analyzed by flow cytometry, using the following antibodies: […]

physchem = type: physicochemical; details: 25 °C, aqueous with cosolvent or surfactant or cyclodextrin, thermodynamic from solid, Solubility at 25° C. (mg/mL)
Procedure: Two studies were performed to evaluate the supersaturation risks of Kleptose based formulations. […] The second study is intended to evaluate the kinetics of drug precipitation in Formulation Ib.
In this experiment, ten solutions were prepared by dissolving Kleptose and formic acid in WFI. The Kleptose concentration in all the ten solutions varied from 30 mg/mL to 250 mg/mL, while the formic acid concentration was kept constant at 1.65 mg/mL as used in the bulk solution of formulation Ib. […] Then the sample of each solution was taken and centrifuged for assay testing.

[2] = GA0087 PDX model ex vivo 3D methylcellulose CellTiter-Glo cell viability assay (IC50, matrix combination, Combination Index)
Procedure: (§2) Materials and Methods: The stomach cancer cell line GA0087 was used in this study. […] Culture media was purchased from GIBCO or Sigma, USA.
(§3) Everolimus was obtained from Selleck. Cisplatin was used as a reference drug, and was obtained from Hospira Australia pty Ltd.
(§4) PDX tumor models were maintained at Crownbio HuPrime animal facility. Tumor growth was monitored weekly. Tumor volumes were measured in two dimensions using a caliper, and the volume was expressed in mm^3 using the formula: V=0.5 a×b^2 where a and b are the long and short diameters of the tumor, respectively. • 2. Mouse xenografts at tumor volume around 800 mm^3 were housed with sterile surgical tools and tumor tissue was minced into tiny pieces with scissors in small amount of PBS on a new tissue culture plate. • 3. The cell suspension was filtered through Falcon cell strainer. The nylon mesh was washed 3-5 times with PBS. • 4. The cell suspension was centrifuged at 1000 rpm for 5 minutes and the pellet was washed with PBS and centrifuged again. • 5. Red blood cells were removed using red blood cell lysis buffer. • 6. The cell suspension was centrifuged at 1000 rpm for 5 minutes and the pellet was washed with PBS and centrifuged again. • 7. The cell pallet was re-suspended with appropriate cell culture media for different cells. • 8. Cells were counted with Countstar by trypan blue exclusion.
(§5) Day −1: Cell Plating • 1. The cells were harvested during the logarithmic growth period. The harvested cells were cultured with appropriate cell media and centrifuged at 1000 rpm for 3 minutes. […] (Cell concentration was adjusted according to the data base or density optimization assay). • 3. 3.5 mL of cell suspension was mixed with 6.5 mL of 1% methylcellulose. […] 90 μL cell suspensions were added to 96-well plates according to plate map with final cell density. Two duplicate plates were set up: one for day 0 reading (T0) and the other was cultured in incubator for reading at the end point.
(§6) Day 0: T0 Plate Reading and Compound Treatment • 5.10 μL culture medium was added to T0 plate in each well for T0 reading. • 6.100 μl CellTiter-Glo® Reagent was added to each well. • 7. The contents were mixed for 2 minutes on an orbital shaker to facilitate cell lysis. • 8. The plates were allowed to incubate at room temperature for 10 minutes to stabilize luminescent signal. • 9. A backseal black sticker was placed to the bottom of each plate. • 10. The luminescence was read using EnVision Multi Label Reader. • 11.
(§7) The solutions were stored at −20° C. […] The response score was calculated by normalizing to DMSO control. The combination index (CI) was calculated using Chou and Talalay method, wherein a CI of less than 1 indicates synergy. Cisplatin was used as control in the single compound dose response, but was not included in the combination test.
(§8) After drug incubation, pictures for representative wells were taken using a phase contrast microscope. • 13. 100 μL CellTiter-Glo® Reagent was added to each well. • 14. Contents were mixed for 2 minutes on an orbital shaker to facilitate cell lysis. • 15. The plates were allowed to incubate at room temperature for 10 minutes to stabilize luminescent signal. • 16. Backseal black sticker was placed to the bottom of each plate. • 17. Luminescence was recorded using EnVision Multi Label Reader.
(§9) In order to calculate IC50, a dose-response curve was fitted using nonlinear regression model with a sigmoidal dose response. The formula of surviving rate is shown below, and the IC50 was automatically produced by GraphPad Prism 5.0.
(§10) The surviving rate (%)=(LumTest article−LumMedium control)/(LumNone treated−LumMedium control)×100%.

[3] = tested on: stomach cancer cell line GA0087; experiment: as above
Procedure: as §2, §3, §4, §5, §6, §7, §8, §9, §10

[4] = tested on: GSPT1, Mcl-1, Bcl-2, cleaved caspase 3 in KG-1 cells; experiment: KG-1 western blots, 16 h; type: cell-based
Procedure: KG-1 cells were seeded in 6 well tissue culture plates at 500,000 cells per mL, 4 mL per well. […] Cells were then washed twice with cold PBS and lysed with M-PER lysis buffer (Thermo) supplemented with 150 mM NaCl and Halt protease and phosphatase inhibitor cocktail (Thermo) on ice for 30 min. Crude lysates were clarified by centrifugation (14000 rpm, 10 min, 4° C.) and total protein quantified by BCA assay. GSPT1 (Abcam, ab49878), Mcl-1 (CST, 4572), Bcl-2 (CST, 4223), cleaved caspase 3 (CST, 9664), and GAPDH (Santa Cruz, sc-47724) levels were probed by western and imaged on a LiCor infrared imager.

BMMCs from MDS patients = experiment: Ex vivo liquid culture of BMMCs from MDS patients, Compound 1 with everolimus (viable cell count); type: cell-based, human
Procedure: Cultures were maintained for 1 week and cell numbers were measured by viable cell count on days 1, 3 and 7 of culture.

[5] = tested on: GSPT1 expression, mTOR activation, Mcl-1 expression and Caspase-3 cleavage in AML cells; experiment: Immunoblot analysis of AML cells treated with Compound 1 and everolimus; type: cell-based; details: AML cell lines HNT-34 and KG1, Compound 1 alone
Excerpt: Whole cell extracts were collected and subjected to immunoblot analysis.

BON cells = experiment: Signaling and proliferation of BON cells, CellTiter-Glo assay (2D and 3D plates); type: cell-based; details: BON1, single agent
[6] = Solubility of Compound 1 in Kleptose solutions ('top-down' approach); type: physicochemical; details: formic acid 1.65 mg/mL
Procedure: The Kleptose concentration varied from 30 to 100 mg/mL.

[7] = tested on: IL3 independent JAK2 V617F BaF3 cells; experiment: Combination studies with JAK2 inhibitors in engineered BaF3 cells, CellTitre-Glo after 3 days; type: cell-based; details: compared to the IL3 dependent lines
Procedure: (§1) Everolimus was included as a control. The cell viability was then measured by CellTitre-Glo® after 3 days.

[8] = tested on: BaF3 cells expressing hCRBN, hCRBN and JAK2 wt, or hCRBN and JAK2-V617F; experiment: as above; type: cell-based; details: IL3 dependent BaF3 lines
Procedure: as §1

[9] = tested on: peripheral blood mononuclear cells (PBMCs) from myelofibrosis patients; experiment: Colony forming assay using myelofibrosis patient samples; type: cell-based, human
Excerpt: The following samples were used:
MF13: De novo MF, characterized by JAK2 wt, FLT3 wt, NPM1 wt, CEBPA wt
MF14: De novo MF, characterized by JAK2 wt, CALR exon9 mut, ASXL1 wt, MPLwt

SMILES: O=C1CCC(N2Cc3cc(CNC(=O)C(F)(F)c4ccc(Cl)cc4)ccc3C2=O)C(=O)N1 (stereo not shown) [Compound 1, 2-(4-chlorophenyl)-N-((2-(2,6-dioxopiperidin-3-yl)-1-oxoisoindolin-5-yl)methyl)-2,2-difluoroacetamide]
- proliferation (total, HSC and progenitor cell count) [1]: inhibition of proliferation
- solubility at 72 h (physchem): 86 µg/mL (≈ 186 µM)
- IC50 ([2]; read-out: Absolute IC50, GA0087-1st experiment): 20.3 nM
- IC50 ([2]; read-out: Absolute IC50, GA0087-2nd experiment): 16.4 nM
- IC50 ([2]; read-out: Relative IC50, GA0087-1st experiment): 16.3 nM
- IC50 ([2]; read-out: Relative IC50, GA0087-2nd experiment): 15.2 nM
- Maximal Inhibition ([3]; GA0087-1st experiment): 90.71%
- Maximal Inhibition ([3]; GA0087-2nd experiment): 92.41%
- activity in the GA0087 model ([3]; ex vivo 3D assay, 7 days, single agent): shows activity
- Mcl-1 levels [4]: reduce levels of Mcl-1
- effect of single agent (BMMCs from MDS patients; 37 nM): No effect
- reduction of cell numbers (BMMCs from MDS patients; 37 nM, after 3 days of culture): ~70%
- cell number decrease (BMMCs from MDS patients; higher concentrations): up to 95%
- GSPT1 degradation, Caspase-3 cleavage and Mcl-1 loss [5]: sufficient to induce robust GSPT1 degradation, Caspase-3 cleavage, and Mcl-1 loss
- standalone activity on proliferation (BON cells): no standalone activity
- Assay at t = 0 ([6]; Kleptose 30 mg/mL): 0.114 mg/mL
- Assay at t = 4 wks without Compound 1 crystal at 25° C. ([6]; Kleptose 30 mg/mL): 0.036 mg/mL
- Assay at t = 9 days with Compound 1 crystal at 25° C. ([6]; Kleptose 30 mg/mL): 0.036 mg/mL
- Assay at t = 0 ([6]; Kleptose 60 mg/mL): 0.115 mg/mL
- Assay at t = 4 wks without Compound 1 crystal at 25° C. ([6]; Kleptose 60 mg/mL): 0.114 mg/mL
- Assay at t = 9 days with Compound 1 crystal at 25° C. ([6]; Kleptose 60 mg/mL): 0.065 mg/mL
- Assay at t = 0 ([6]; Kleptose 70 mg/mL): 0.115 mg/mL
- Assay at t = 4 wks without Compound 1 crystal at 25° C. ([6]; Kleptose 70 mg/mL): 0.114 mg/mL
- Assay at t = 9 days with Compound 1 crystal at 25° C. ([6]; Kleptose 70 mg/mL): 0.077 mg/mL
- Assay at t = 0 ([6]; Kleptose 80 mg/mL): 0.116 mg/mL
- Assay at t = 4 wks without Compound 1 crystal at 25° C. ([6]; Kleptose 80 mg/mL): 0.114 mg/mL
- Assay at t = 9 days with Compound 1 crystal at 25° C. ([6]; Kleptose 80 mg/mL): 0.103 mg/mL
- Assay at t = 0 ([6]; Kleptose 90 mg/mL): 0.116 mg/mL
- Assay at t = 4 wks without Compound 1 crystal at 25° C. ([6]; Kleptose 90 mg/mL): 0.115 mg/mL
- Assay at t = 9 days with Compound 1 crystal at 25° C. ([6]; Kleptose 90 mg/mL): 0.114 mg/mL
- Assay at t = 0 ([6]; Kleptose 100 mg/mL): 0.117 mg/mL
- Assay at t = 4 wks without Compound 1 crystal at 25° C. ([6]; Kleptose 100 mg/mL): 0.115 mg/mL
- Assay at t = 9 days with Compound 1 crystal at 25° C. ([6]; Kleptose 100 mg/mL): 0.117 mg/mL
- single agent sensitivity [7]: more sensitive
- difference in single agent effect on cell viability between cell lines [8]: no difference
- number of colony forming cells ([9]; 14 days in methocult media, samples MF13, MF14): reduced by Compound 1 in a dose dependent manner
- IC50 in colony forming assay ([9]; compared with samples from healthy volunteers): lower than IC50s observed in samples from healthy volunteers
